From ChEMBL document CHEMBL3431459, “Roche carnitine palmitoyltransferase modulator screening data (supplementary data associated with the publication CHEMBL2216752)”
Converted amounts (≈) assume the structure as drawn.

What was measured:
[1] = SUPPLEMENTARY: Lipophilicity (log D) Determination by high-throughput shake-flask; format: physicochemical; conditions: octanol/water
[2] = molecular target: T1, Carnitine O-palmitoyltransferase 1, liver isoform (Homo sapiens, UniProt P50416); assay: (§1) SUPPLEMENTARY: Inhibition of Carnitine palmitoyltransferase 1, liver isoform
T1 sequence (P50416 whole entry): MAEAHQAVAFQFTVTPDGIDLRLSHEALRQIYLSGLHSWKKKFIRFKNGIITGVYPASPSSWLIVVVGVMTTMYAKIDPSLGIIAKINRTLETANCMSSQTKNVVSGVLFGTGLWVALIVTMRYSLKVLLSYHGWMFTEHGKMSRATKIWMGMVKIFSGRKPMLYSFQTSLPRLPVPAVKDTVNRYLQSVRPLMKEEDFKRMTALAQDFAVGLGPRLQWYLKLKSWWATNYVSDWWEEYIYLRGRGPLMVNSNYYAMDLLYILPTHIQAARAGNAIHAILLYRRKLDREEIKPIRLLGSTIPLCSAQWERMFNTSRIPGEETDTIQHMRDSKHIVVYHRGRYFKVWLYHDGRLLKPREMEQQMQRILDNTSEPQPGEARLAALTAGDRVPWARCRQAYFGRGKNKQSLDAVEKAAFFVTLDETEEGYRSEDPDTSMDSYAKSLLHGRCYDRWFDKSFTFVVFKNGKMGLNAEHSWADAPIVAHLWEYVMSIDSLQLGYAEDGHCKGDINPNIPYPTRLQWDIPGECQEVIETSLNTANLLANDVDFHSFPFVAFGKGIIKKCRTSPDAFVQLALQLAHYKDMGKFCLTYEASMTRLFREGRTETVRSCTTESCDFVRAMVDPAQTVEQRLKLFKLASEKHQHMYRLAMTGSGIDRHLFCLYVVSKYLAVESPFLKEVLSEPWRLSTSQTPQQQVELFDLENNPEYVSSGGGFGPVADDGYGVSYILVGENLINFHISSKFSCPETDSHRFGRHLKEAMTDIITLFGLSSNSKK

[3] = molecular target: T2, Carnitine O-palmitoyltransferase 1, liver isoform (Rattus norvegicus, UniProt P32198); assay: as §1
T2 sequence (P32198 whole entry): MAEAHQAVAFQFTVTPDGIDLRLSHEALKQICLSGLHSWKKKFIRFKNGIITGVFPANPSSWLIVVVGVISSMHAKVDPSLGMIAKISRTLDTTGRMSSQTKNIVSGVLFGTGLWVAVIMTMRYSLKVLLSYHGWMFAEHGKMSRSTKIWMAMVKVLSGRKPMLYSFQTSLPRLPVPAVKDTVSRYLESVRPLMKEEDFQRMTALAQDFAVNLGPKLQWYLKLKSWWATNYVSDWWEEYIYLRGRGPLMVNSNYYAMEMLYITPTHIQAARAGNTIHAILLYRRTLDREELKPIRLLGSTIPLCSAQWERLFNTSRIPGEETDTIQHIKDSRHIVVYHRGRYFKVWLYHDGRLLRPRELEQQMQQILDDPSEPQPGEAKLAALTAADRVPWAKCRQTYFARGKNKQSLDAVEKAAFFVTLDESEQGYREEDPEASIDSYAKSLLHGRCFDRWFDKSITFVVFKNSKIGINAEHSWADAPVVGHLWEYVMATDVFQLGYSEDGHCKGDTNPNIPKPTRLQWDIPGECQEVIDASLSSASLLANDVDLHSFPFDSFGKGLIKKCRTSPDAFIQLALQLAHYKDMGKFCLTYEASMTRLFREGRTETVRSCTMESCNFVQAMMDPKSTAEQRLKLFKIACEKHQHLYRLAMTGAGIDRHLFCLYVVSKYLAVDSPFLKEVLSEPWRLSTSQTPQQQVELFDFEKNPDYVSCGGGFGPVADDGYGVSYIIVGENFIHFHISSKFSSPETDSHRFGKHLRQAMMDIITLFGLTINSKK

[4] = molecular target: T3, Carnitine O-palmitoyltransferase 2, mitochondrial (Homo sapiens, UniProt P23786); assay: (§2) SUPPLEMENTARY: Inhibition of Carnitine palmitoyltransferase 2
T3 sequence (P23786 whole entry): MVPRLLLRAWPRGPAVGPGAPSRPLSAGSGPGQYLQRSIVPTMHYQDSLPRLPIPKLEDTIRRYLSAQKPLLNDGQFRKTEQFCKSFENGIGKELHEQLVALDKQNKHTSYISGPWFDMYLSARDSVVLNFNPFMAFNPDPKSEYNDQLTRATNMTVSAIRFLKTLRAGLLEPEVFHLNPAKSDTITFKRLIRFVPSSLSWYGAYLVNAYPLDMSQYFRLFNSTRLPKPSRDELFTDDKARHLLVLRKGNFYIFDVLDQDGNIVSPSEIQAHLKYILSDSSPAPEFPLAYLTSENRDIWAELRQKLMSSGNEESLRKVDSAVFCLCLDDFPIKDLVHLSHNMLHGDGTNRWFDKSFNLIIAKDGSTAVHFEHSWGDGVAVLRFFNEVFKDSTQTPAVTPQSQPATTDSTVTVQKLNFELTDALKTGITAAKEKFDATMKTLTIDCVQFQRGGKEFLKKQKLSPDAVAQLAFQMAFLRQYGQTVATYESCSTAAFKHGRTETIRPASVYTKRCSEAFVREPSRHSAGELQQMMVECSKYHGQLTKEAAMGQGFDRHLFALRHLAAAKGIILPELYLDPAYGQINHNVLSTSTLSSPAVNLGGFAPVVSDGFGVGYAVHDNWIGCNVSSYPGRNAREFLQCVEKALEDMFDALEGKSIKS

[5] = molecular target: T4, Carnitine O-palmitoyltransferase 2, mitochondrial (Rattus norvegicus, UniProt P18886); assay: as §2
T4 sequence (P18886 whole entry): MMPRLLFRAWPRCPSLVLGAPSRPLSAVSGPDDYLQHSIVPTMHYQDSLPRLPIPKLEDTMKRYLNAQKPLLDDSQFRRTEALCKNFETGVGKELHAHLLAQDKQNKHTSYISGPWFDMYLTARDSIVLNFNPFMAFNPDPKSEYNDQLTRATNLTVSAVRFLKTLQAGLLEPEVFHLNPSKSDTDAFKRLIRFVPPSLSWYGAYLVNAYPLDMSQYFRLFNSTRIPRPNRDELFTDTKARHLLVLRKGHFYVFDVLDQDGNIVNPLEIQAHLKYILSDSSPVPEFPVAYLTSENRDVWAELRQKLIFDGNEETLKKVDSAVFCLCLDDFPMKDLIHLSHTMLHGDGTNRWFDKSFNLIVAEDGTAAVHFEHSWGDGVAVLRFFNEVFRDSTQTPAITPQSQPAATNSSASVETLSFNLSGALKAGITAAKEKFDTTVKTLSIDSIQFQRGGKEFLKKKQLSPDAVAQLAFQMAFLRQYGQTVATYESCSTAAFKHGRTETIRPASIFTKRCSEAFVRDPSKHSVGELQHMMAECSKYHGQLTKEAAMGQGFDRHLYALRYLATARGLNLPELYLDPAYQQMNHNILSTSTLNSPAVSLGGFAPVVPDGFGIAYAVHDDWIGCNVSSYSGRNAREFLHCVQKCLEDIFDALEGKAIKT

[6] = SUPPLEMENTARY: PAMPA permeability assay; format: physicochemical; conditions: read-out: Permeability
[7] = molecular target: T5, Carnitine O-palmitoyltransferase 1, muscle isoform (Homo sapiens, UniProt Q92523); assay: SUPPLEMENTARY: Inhibition of Carnitine palmitoyltransferase 1, muscle isoform; set-up: species or system Muscle tissue
T5 sequence (Q92523 whole entry): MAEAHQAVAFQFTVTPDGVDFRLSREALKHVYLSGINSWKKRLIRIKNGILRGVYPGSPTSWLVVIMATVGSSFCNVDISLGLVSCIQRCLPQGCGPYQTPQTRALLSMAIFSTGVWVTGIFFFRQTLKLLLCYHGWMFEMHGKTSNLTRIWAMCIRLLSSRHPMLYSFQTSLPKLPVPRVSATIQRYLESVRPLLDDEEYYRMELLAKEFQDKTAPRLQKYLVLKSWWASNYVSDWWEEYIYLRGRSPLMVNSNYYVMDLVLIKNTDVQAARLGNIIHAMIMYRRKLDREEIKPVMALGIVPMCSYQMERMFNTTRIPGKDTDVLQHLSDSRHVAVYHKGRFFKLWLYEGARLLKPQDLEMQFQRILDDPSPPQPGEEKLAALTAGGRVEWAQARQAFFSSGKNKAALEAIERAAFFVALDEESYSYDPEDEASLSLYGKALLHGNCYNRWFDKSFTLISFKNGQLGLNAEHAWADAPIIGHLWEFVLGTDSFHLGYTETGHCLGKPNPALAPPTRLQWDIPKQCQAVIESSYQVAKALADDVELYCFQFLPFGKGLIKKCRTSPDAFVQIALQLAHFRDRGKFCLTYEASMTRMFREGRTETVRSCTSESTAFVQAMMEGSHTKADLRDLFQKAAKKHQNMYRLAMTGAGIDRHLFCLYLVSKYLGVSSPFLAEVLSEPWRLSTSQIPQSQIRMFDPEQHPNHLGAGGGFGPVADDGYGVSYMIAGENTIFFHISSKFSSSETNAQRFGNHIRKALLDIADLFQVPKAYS

[8] = SUPPLEMENTARY: Lyophilisation Solubility Assay (LYSA); format: physicochemical; conditions: read-out: Kinetic_solubility

Row | SMILES | logD [1] | IC50 [2] | IC50 [3] | IC50 [4] | IC50 [5] | Papp [6] | IC50 [7] | solubility kinetic [8]
1 | COc1ccc(Cl)cc1S(=O)(=O)N1CCOc2ccc(C(=O)Nc3ccc(CC(=O)O)cc3)cc21 | 0.11 | 96.8 nM | 70.2 nM | > 100000 nM | > 100000 nM | 1.86 ×10⁻⁶ cm/s | 827 nM | 6 µg/mL (≈ 11.6 µM)
2 | O=C1CN(c2cccc(-c3n[nH]c([C@H]4CCCCN4C(=O)COc4ccccc4)n3)c2)C(=O)N1 | 2.16 | 96.8 nM | 150 nM | 23500 nM | 56900 nM | 1.92 ×10⁻⁶ cm/s | 61800 nM | 54 µg/mL (≈ 117 µM)
3 | O=C(O)c1cncc(-c2noc([C@H]3CCCCN3C(=O)COc3ccccc3)n2)c1 | -1.07 | 226 nM | 4510 nM | 96300 nM | > 100000 nM | 0.07 ×10⁻⁶ cm/s | > 100000 nM | 397 µg/mL (≈ 972 µM)
4 | COc1ccc(Cl)cc1S(=O)(=O)N1CCOc2ccc(C(=O)Nc3ccc(C(=O)O)nc3)cc21 | -0.42 | 232 nM | 575 nM | 5450 nM | 24600 nM | 0.57 ×10⁻⁶ cm/s | 22600 nM | 195 µg/mL (≈ 387 µM)
5 | N#Cc1ccc(-c2nc([C@H]3CCCCN3C(=O)COc3ccccc3)no2)cn1 | 2.54 | 166 nM | 247 nM | 7280 nM | 79200 nM | 8.44 ×10⁻⁶ cm/s | > 100000 nM | 33 µg/mL (≈ 84.7 µM)
6 | CS(=O)(=O)c1cccc(-c2nc([C@H]3CCCCN3C(=O)COc3ccccc3)no2)c1 | 2.39 | 206 nM | 125 nM | 22300 nM | > 100000 nM | 2.96 ×10⁻⁶ cm/s | > 100000 nM | 18 µg/mL (≈ 40.8 µM)
7 | O=C1Nc2ccc(-c3noc([C@H]4CCCCN4C(=O)COc4ccccc4)n3)cc2CO1 | 2.89 | 98.2 nM | 154 nM | 4740 nM | > 100000 nM | 3.59 ×10⁻⁶ cm/s | > 100000 nM | 8 µg/mL (≈ 18.4 µM)
8 | O=C(COc1ccccc1)N1CCCC[C@@H]1c1nc(-c2ccc([N+](=O)[O-])s2)no1 | > 3 | 223 nM | 376 nM | 62300 nM | > 100000 nM | 4.39 ×10⁻⁶ cm/s | > 100000 nM | < 1 µg/mL

Continued, values first:

Row | logD [1] | IC50 [2] | IC50 [3] | IC50 [4] | IC50 [5] | Papp [6] | IC50 [7] | solubility kinetic [8] | SMILES
9 | 2.7 | 91.1 nM | 34.8 nM | > 100000 nM | > 100000 nM | 1.03 ×10⁻⁶ cm/s | 2760 nM | 48 µg/mL (≈ 96.4 µM) | COc1ccc(Cl)cc1CN1C(=O)C2(CC2)c2ccc(C(=O)Nc3nc(CC(=O)O)cs3)cc21
10 | 0.65 | 56.1 nM | 40.7 nM | 2890 nM | 6560 nM | 2.93 ×10⁻⁶ cm/s | 5490 nM | 13 µg/mL (≈ 26.6 µM) | COc1ccc(Cl)cc1S(=O)(=O)N1COc2ccc(C(=O)Nc3ccc(C(=O)O)cc3)cc21
11 | -0.34 | 94.1 nM | 36.8 nM | 2530 nM | 55600 nM | 0.12 ×10⁻⁶ cm/s | 17200 nM | 34 µg/mL (≈ 63.6 µM) | COc1ccc(Cl)cc1S(=O)(=O)N1CC[S+]([O-])c2ccc(C(=O)Nc3ccc(C(=O)O)cc3)cc21 (configuration not stated)
12 | 3.5 | 82.7 nM | 250 nM | > 100000 nM | > 100000 nM | 1.45 ×10⁻⁶ cm/s | > 100000 nM | 23 µg/mL (≈ 60.5 µM) | O=C(COc1ccccc1)N1CCCC[C@@H]1c1nc(-c2cccc(F)c2)n[nH]1
13 | 1.32 | 78.2 nM | 79.4 nM | 312 nM | 2010 nM | 1.85 ×10⁻⁶ cm/s | 35900 nM | 13 µg/mL (≈ 25.8 µM) | COc1ccc(Cl)cc1S(=O)(=O)N1COc2c(C)cc(C(=O)Nc3ccc(C(=O)O)cc3)cc21
14 | 2.22 | 61 nM | 152 nM | > 100000 nM | > 100000 nM | 0.93 ×10⁻⁶ cm/s | 134 nM | 1 µg/mL (≈ 1.84 µM) | COc1ccc(Cl)cc1S(=O)(=O)N1CCOc2ccc(C(=O)Nc3ccc(-c4noc(=O)[nH]4)cc3)cc21
